Measured values as given in ChEMBL document CHEMBL4507268 (2021).

Assays:
[1] = target: Rho-associated protein kinase 1 (Homo sapiens) (UniProt Q13464); conditions: Compound concentration 1000.0 nM
[2] = target: Mitogen-activated protein kinase kinase kinase 14 (Homo sapiens) (UniProt Q99558); conditions: Compound concentration 1000.0 nM
[3] = tested on: Phosphatidylinositol 4,5-bisphosphate 3-kinase catalytic subunit alpha isoform (Homo sapiens), P42336 [E545A]; conditions: Compound concentration 1000.0 nM
[4] = target: Mitogen-activated protein kinase kinase kinase 20 (Homo sapiens) (UniProt Q9NYL2); conditions: Compound concentration 1000.0 nM
[5] = target: Receptor tyrosine-protein kinase erbB-3 (Homo sapiens) (UniProt P21860); conditions: Compound concentration 1000.0 nM
[6] = target: Tyrosine-protein kinase receptor UFO (Homo sapiens) (UniProt P30530); conditions: Compound concentration 1000.0 nM
[7] = target: Ephrin type-A receptor 2 (Homo sapiens) (UniProt P29317); conditions: Compound concentration 1000.0 nM
[8] = tested on: Phosphatidylinositol 4,5-bisphosphate 3-kinase catalytic subunit alpha isoform (Homo sapiens), P42336 [H1047L]; conditions: Compound concentration 1000.0 nM
[9] = target: Serine/threonine-protein kinase 25 (Homo sapiens) (UniProt O00506); conditions: Compound concentration 1000.0 nM
[10] = target: T1, Protein kinase C iota type (Homo sapiens) (UniProt P41743); conditions: Compound concentration 1000.0 nM
T1 sequence (whole entry): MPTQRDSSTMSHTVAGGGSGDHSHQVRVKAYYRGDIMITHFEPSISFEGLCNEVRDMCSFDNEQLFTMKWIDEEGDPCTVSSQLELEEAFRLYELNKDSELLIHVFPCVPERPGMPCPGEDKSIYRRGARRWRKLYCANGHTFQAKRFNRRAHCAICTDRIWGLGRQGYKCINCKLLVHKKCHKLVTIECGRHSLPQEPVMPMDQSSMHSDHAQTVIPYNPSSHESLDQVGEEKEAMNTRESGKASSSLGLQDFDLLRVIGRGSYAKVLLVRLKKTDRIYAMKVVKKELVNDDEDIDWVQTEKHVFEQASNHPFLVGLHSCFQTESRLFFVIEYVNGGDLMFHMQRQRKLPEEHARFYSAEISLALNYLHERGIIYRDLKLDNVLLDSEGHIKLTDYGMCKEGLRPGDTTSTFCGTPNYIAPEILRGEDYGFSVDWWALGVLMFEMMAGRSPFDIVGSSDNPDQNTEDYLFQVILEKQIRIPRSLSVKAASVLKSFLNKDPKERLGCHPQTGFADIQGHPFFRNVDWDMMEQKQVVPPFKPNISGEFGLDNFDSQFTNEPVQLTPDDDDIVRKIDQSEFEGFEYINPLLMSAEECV

[11] = target: GABA-A receptor; anion channel (Rattus norvegicus) (UniProt O09028+P15431+P18506+P18508+P19969+P20236+P23574+P23576+P28471+P28473+P30191+P62813+P63079+P63138+Q91ZM7+Q9ES14); conditions: Compound concentration 10.0 uM
[12] = target: Calcium/calmodulin-dependent protein kinase kinase 2 (Homo sapiens) (UniProt Q96RR4); conditions: Compound concentration 1000.0 nM
[13] = tested on: Tyrosine-protein kinase ABL1 (Homo sapiens), P00519 [M351T]; conditions: Compound concentration 1000.0 nM
[14] = tested on: Receptor-type tyrosine-protein kinase FLT3 (Homo sapiens), P36888 [D835V]; conditions: Compound concentration 1000.0 nM
[15] = target: MAP kinase-activated protein kinase 2 (Homo sapiens) (UniProt P49137); conditions: Compound concentration 1000.0 nM
[16] = target: MAP kinase-interacting serine/threonine-protein kinase 1 (Homo sapiens) (UniProt Q9BUB5); conditions: Compound concentration 1000.0 nM
[17] = tested on: Mast/stem cell growth factor receptor Kit (Homo sapiens), P10721 [A829P]; conditions: Compound concentration 1000.0 nM
[18] = target: 5-hydroxytryptamine receptor 7 (Homo sapiens) (UniProt P34969); conditions: Compound concentration 10.0 uM
[19] = target: Membrane-associated tyrosine- and threonine-specific cdc2-inhibitory kinase (Homo sapiens) (UniProt Q99640); conditions: Compound concentration 1000.0 nM
[20] = target: Myosin light chain kinase 2, skeletal/cardiac muscle (Homo sapiens) (UniProt Q9H1R3); conditions: Compound concentration 1000.0 nM
[21] = tested on: Mast/stem cell growth factor receptor Kit (Homo sapiens), P10721 [V559D,T670I]; conditions: Compound concentration 1000.0 nM
[22] = tested on: Tyrosine-protein kinase ABL1 (Homo sapiens), P00519 [H396P]; conditions: Compound concentration 1000.0 nM
[23] = target: Tyrosine-protein kinase Fyn (Homo sapiens) (UniProt P06241); conditions: Compound concentration 1000.0 nM
[24] = target: Serine/threonine-protein kinase PAK 6 (Homo sapiens) (UniProt Q9NQU5); conditions: Compound concentration 1000.0 nM
[25] = target: Cyclin-dependent kinase 2 homolog (Plasmodium falciparum (isolate 3D7)) (UniProt P61075); conditions: Compound concentration 1000.0 nM
[26] = tested on: Tyrosine-protein kinase ABL1 (Homo sapiens), P00519 [F317I]; conditions: Compound concentration 1000.0 nM

Myosin light chain kinase 2, skeletal/cardiac muscle (Homo sapiens), sequence (Q9H1R3 whole entry): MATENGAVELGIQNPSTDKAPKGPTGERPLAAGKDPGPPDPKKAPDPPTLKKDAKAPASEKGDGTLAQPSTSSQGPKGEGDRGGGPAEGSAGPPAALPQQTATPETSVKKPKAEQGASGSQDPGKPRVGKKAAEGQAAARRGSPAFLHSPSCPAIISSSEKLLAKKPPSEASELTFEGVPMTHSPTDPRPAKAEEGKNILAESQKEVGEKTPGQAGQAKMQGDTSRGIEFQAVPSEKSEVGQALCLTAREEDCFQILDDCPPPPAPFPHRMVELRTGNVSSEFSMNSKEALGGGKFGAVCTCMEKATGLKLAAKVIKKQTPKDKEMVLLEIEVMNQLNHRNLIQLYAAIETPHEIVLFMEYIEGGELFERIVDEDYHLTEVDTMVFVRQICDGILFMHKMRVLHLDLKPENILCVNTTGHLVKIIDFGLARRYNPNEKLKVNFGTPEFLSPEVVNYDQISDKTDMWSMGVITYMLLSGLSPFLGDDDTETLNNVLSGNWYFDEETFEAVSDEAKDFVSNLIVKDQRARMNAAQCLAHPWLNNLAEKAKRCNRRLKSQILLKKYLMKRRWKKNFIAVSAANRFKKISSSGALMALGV
Tyrosine-protein kinase Fyn (Homo sapiens), sequence (P06241 2-537 limits assumed): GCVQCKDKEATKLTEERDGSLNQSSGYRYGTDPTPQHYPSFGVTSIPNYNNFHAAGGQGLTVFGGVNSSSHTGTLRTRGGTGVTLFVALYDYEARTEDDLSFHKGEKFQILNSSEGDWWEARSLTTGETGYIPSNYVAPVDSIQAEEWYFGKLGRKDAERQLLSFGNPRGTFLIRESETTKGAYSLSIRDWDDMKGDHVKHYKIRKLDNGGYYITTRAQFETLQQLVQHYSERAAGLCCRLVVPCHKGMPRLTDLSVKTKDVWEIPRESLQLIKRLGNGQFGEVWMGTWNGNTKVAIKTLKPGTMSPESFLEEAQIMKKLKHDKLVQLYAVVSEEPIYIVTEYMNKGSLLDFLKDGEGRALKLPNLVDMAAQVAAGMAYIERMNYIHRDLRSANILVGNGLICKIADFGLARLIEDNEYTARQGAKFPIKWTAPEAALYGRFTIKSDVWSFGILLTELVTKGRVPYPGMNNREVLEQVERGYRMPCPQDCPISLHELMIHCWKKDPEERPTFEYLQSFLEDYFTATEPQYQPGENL
Membrane-associated tyrosine- and threonine-specific cdc2-inhibitory kinase (Homo sapiens), sequence (Q99640 whole entry): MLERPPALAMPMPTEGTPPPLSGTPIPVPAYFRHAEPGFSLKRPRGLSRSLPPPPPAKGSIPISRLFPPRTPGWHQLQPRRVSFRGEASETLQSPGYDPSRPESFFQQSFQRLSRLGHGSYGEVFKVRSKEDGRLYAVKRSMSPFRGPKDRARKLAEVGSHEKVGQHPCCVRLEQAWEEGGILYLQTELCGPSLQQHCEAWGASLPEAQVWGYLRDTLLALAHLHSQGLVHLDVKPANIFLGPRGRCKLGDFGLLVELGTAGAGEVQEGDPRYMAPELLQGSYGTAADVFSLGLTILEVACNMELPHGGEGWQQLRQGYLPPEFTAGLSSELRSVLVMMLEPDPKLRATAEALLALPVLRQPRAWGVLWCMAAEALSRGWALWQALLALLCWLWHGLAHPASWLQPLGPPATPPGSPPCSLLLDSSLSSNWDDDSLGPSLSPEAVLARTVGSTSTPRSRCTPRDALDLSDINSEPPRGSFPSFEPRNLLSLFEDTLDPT
Mast/stem cell growth factor receptor Kit (Homo sapiens), P10721 [V559D,T670I], sequence (P10721 whole entry V559D/T670I): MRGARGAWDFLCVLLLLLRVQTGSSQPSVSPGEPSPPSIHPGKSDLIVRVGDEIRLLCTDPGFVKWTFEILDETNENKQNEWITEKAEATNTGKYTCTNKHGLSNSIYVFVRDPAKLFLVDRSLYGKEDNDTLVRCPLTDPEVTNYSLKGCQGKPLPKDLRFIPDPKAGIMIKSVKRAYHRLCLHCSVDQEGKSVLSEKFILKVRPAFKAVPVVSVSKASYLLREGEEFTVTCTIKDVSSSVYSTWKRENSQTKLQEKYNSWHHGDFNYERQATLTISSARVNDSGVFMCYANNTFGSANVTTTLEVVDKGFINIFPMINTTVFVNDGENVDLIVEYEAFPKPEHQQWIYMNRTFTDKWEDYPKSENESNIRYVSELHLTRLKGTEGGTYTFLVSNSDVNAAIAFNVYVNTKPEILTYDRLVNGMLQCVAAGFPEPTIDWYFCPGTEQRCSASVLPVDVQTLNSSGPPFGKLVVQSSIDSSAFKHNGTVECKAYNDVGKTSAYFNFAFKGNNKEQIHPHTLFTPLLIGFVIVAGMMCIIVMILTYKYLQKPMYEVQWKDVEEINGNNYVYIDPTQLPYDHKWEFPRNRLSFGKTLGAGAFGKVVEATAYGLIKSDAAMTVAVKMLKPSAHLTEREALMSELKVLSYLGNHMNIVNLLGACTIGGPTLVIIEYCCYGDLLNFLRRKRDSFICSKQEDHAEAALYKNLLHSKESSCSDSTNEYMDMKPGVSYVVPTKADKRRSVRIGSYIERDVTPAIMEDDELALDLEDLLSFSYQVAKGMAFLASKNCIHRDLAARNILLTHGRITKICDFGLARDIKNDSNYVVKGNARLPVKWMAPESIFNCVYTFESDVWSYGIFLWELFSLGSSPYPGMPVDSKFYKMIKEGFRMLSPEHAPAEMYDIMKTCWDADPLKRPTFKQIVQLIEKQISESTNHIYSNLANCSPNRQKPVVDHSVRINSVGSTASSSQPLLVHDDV
Calcium/calmodulin-dependent protein kinase kinase 2 (Homo sapiens), sequence (Q96RR4 2-588 limits assumed): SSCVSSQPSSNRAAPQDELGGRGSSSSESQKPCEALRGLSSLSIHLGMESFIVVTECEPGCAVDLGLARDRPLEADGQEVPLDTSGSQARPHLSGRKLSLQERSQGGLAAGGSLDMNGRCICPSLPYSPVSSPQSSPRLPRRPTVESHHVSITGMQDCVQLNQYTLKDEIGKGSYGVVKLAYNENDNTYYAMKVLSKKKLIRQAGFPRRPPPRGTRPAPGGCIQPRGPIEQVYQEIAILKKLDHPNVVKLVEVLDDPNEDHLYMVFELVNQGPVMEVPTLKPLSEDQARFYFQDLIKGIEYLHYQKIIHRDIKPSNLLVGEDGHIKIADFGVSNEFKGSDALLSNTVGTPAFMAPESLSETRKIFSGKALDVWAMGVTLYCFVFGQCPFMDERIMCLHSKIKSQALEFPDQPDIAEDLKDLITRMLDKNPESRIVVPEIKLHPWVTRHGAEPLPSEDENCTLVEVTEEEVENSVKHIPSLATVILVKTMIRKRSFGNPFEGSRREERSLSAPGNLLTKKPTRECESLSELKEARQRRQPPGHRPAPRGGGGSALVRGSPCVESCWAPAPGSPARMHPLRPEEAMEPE
Cyclin-dependent kinase 2 homolog (Plasmodium falciparum (isolate 3D7)), sequence (P61075 whole entry): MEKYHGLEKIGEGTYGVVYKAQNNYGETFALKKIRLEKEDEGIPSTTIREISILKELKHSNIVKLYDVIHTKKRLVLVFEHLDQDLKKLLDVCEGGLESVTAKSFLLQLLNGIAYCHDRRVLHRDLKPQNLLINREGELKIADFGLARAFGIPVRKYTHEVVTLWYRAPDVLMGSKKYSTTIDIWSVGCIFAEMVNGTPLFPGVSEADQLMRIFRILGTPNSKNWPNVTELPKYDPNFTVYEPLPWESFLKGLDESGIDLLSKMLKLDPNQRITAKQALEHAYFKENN
Mitogen-activated protein kinase kinase kinase 14 (Homo sapiens), sequence (Q99558 whole entry, looked up, canonical isoform): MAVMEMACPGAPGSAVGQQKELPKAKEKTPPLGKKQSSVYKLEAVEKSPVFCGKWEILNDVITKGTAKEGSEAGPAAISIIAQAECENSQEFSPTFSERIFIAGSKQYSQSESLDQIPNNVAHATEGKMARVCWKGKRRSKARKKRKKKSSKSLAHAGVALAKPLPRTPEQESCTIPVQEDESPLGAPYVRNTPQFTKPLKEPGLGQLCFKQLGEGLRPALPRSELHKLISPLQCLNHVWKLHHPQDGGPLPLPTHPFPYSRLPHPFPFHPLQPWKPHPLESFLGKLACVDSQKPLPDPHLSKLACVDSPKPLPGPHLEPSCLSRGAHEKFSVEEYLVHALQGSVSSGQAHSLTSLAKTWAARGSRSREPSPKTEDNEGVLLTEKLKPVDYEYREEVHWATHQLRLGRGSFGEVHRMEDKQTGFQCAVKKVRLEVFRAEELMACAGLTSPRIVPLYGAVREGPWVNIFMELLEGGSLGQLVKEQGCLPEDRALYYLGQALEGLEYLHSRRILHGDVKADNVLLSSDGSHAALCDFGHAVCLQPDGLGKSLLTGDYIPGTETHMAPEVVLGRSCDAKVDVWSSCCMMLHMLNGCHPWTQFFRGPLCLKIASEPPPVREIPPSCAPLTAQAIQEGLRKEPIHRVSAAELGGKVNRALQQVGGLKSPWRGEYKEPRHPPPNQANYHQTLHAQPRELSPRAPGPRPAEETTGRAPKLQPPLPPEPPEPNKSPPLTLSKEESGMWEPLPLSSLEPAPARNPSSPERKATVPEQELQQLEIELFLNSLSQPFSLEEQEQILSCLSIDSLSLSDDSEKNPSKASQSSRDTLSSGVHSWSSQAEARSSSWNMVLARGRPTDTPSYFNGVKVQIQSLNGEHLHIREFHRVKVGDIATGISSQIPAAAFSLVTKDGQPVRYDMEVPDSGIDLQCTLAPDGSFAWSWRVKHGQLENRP
MAP kinase-activated protein kinase 2 (Homo sapiens), sequence (P49137 whole entry, looked up): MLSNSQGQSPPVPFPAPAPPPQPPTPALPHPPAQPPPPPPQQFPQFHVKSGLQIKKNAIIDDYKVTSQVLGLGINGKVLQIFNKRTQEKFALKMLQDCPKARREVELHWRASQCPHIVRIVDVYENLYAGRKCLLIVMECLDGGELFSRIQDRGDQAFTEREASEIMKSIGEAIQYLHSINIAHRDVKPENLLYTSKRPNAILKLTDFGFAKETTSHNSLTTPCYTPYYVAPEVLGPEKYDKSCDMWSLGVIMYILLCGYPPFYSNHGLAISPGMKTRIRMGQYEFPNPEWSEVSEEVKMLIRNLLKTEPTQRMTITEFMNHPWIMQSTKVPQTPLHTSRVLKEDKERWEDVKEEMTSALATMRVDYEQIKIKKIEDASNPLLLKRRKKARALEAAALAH

Cc1nc(C2CCN(C(=O)c3ccc(OC(F)(F)F)cc3N)CC2)c2ncc(N3CCN(C)CC3)cc2n1 [BAY-693]
inactive: residual activity [1] 100% | residual activity [2] 100% | residual activity [3] 79% | residual activity [4] 95% | residual activity [5] 88% | residual activity [6] 100% | residual activity [7] 100% | residual activity [8] 87% | residual activity [9] 100% | residual activity [10] 81% | inhibition [11] 15% | residual activity [12] 100% | residual activity [13] 100% | residual activity [14] 79% | residual activity [15] 100% | residual activity [16] 100% | residual activity [17] 86% | inhibition [18] -0.78% | residual activity [19] 100% | residual activity [20] 87% | residual activity [21] 100% | residual activity [22] 89% | residual activity [23] 96% | residual activity [24] 93% | residual activity [25] 100% | residual activity [26] 100%

CN1CCN(c2cnc3c(C4CCN(C(=O)c5ccc(OC(F)(F)F)cc5N)CC4)ncnc3c2)CC1 [BAY-885]
inactive: residual activity [1] 100% | residual activity [2] 100% | residual activity [3] 89% | residual activity [4] 98% | residual activity [5] 84% | residual activity [6] 78% | residual activity [7] 100% | residual activity [8] 100% | residual activity [9] 92% | residual activity [10] 77% | inhibition [11] 21.8% | residual activity [12] 100% | residual activity [13] 100% | residual activity [14] 90% | residual activity [15] 100% | residual activity [16] 100% | residual activity [17] 100% | inhibition [18] -9.57% | residual activity [19] 100% | residual activity [20] 85% | residual activity [21] 100% | residual activity [22] 100% | residual activity [23] 100% | residual activity [24] 100% | residual activity [25] 100% | residual activity [26] 100%
